This note sets out measurements from paper PMC8301025 (Biology, 2021).

This assay relates to T1, CLas GMPS.
T1 construct: gene guaA
The settings on record: read-out: (NH4)2SO4, Km mM; saturating XMP and ATP, 20 mM MgCl2, pH 8.5; salt printed as (NH4)2SO4 in table, NH4Cl in methods; text prints 10.9 ± 1.9 mM.

Each structure is given as a SMILES string.

As usually defined, the Km is the substrate concentration at which the rate is half of its maximum. With `N` [NH4+], the Km came out at 10.9 ± 1.3 mM.
